# Test results: patent publication US11471537B2, “Oligomer extended insulin-Fc conjugates” (Novo Nordisk A/S, priority 2017, dated 2022)
# How the values were obtained:
# isolated rat adipocytes = experiment: Insulin-stimulated lipogenesis; assay type: cell-based; conditions: 1% HSA; relative to the activity of human insulin (100%)
# Protocol: Insulin-stimulated lipogenesis was measured in isolated rat adipocytes in presence of 1% HSA as described in Moody A J, Stan M A, Stan M, Gliemann J. A Simple Free Fat Cell Bioassay for Insulin. Hormone And Metabolic Research. 1974; 6(1):12-6, see results in Table 6.
# insulin receptor A = insulin receptor A (Homo sapiens, UniProt P06213); experiment: Insulin receptor affinity; assay type: binding; conditions: relative to affinity of human insulin for insulin receptor A (100%)
# Sprague-Dawley rats = experiment: PD studies: blood glucose after subcutaneous dosing; assay type: in vivo; conditions: sc
# Protocol: The pharmacodynamic effect of the Insulin Fc conjugates of the examples were investigated in normal male Sprague-Dawley rats weighing approx. 350 g at study start.
# Animals had free access to food and water during the experiment period. They were dosed subcutaneously in the neck region with a dose of 30 nmol/kg (unless otherwise stated in the figures below). Blood samples for blood glucose and plasma insulin analysis were collected from the tongue veins up to 10 days post dosing. Blood glucose was measured using Biosen S Line (EKF).
# [1] = dose 30 nmol/kg, time 0.041667 days
# [2] = dose 30 nmol/kg, time 0.125 days
# [3] = dose 30 nmol/kg, time 0.291667 days
# insulin receptor A, sequence (P06213 28-1370 isoform P06213-2 limits assumed): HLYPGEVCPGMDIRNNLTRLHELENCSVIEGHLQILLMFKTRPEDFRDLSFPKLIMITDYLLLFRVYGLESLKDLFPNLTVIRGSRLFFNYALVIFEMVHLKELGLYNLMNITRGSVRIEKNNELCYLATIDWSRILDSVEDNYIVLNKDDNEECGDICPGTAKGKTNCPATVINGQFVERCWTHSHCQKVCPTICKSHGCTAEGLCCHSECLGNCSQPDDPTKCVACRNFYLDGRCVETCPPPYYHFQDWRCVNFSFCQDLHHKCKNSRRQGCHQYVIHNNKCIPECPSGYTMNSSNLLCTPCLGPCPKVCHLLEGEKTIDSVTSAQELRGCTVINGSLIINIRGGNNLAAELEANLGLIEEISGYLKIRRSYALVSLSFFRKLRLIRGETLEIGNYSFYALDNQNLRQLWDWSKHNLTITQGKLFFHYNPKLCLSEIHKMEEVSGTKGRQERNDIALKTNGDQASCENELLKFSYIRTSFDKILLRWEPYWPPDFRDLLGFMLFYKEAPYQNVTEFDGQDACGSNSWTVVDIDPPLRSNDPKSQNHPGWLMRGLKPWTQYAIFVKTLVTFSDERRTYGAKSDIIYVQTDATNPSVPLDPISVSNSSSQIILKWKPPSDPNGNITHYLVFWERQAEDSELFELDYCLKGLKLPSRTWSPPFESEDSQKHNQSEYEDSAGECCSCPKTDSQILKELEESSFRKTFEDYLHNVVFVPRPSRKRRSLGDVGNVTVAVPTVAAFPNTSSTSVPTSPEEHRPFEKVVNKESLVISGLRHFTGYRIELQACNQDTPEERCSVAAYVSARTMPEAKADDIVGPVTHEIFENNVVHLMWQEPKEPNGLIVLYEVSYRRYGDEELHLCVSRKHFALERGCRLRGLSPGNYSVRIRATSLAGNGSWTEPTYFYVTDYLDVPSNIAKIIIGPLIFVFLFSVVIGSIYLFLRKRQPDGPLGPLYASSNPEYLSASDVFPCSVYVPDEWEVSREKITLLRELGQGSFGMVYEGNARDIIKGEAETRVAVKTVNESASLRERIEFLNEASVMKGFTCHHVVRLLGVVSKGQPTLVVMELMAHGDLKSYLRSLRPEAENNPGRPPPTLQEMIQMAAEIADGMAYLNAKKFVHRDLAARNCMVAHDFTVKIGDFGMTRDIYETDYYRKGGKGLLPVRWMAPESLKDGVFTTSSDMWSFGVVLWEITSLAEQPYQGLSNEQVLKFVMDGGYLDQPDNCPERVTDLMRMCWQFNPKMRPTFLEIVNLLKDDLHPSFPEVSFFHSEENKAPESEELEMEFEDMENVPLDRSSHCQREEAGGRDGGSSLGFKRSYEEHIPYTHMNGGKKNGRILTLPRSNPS
# insulin receptor A, sequence (P06213 763-1382 partner limits assumed): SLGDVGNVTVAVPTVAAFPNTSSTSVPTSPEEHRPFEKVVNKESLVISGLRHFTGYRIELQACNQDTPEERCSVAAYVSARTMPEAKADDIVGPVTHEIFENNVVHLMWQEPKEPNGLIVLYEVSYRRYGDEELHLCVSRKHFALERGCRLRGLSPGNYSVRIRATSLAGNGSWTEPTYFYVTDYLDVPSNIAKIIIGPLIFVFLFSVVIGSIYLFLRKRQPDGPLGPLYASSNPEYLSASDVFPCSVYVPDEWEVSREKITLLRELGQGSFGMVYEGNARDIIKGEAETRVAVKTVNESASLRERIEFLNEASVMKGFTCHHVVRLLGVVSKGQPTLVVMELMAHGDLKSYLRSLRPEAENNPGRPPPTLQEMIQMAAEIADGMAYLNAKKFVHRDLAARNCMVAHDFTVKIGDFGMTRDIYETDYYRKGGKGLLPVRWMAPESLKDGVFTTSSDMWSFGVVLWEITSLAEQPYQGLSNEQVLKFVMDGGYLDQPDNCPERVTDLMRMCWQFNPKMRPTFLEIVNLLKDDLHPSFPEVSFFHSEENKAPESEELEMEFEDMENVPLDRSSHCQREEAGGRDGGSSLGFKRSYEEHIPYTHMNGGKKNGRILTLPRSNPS
Substance,Insulin receptor affinity [IC50 relative to HI (%)] Mean Value (insulin receptor A),Lipogenesis in rat adipocytes [Potency (%)] Mean Value (isolated rat adipocytes),"Average blood glucose (Sprague-Dawley rats; dose 30 nmol/kg, time 0 days)",Average blood glucose (Sprague-Dawley rats; [1]),Average blood glucose (Sprague-Dawley rats; [2]),Average blood glucose (Sprague-Dawley rats; [3]),"Average blood glucose (Sprague-Dawley rats; dose 30 nmol/kg, time 1 day)","Average blood glucose (Sprague-Dawley rats; dose 30 nmol/kg, time 2 days)","Average blood glucose (Sprague-Dawley rats; dose 30 nmol/kg, time 3 days)","Average blood glucose (Sprague-Dawley rats; dose 30 nmol/kg, time 4 days)","Average blood glucose (Sprague-Dawley rats; dose 30 nmol/kg, time 6 days)","Average blood glucose (Sprague-Dawley rats; dose 30 nmol/kg, time 7 days)","Average blood glucose (Sprague-Dawley rats; dose 30 nmol/kg, time 8 days)",also measured
"A14E, A21Q, A22(G)18, A40K^, B25H, B29R, desB30 human insulin/(227A, 234A, 235K hIgG4-Fc(228-447))4-[bis[2-[(2-acetyl)amino]ethyl]amino]-4-oxo-butanoyl Conjugate [Example 5.21]",2.10%,0.95%,–,–,–,–,–,–,–,–,–,–,–,"Average blood glucose (Sprague-Dawley rats; dose 300 nmol/kg, time 0 days): 5.254 mM; Average blood glucose (Sprague-Dawley rats; dose 300 nmol/kg, time 0.006944 days): 5.972 mM; Average blood glucose (Sprague-Dawley rats; dose 300 nmol/kg, time 0.041667 days): 4.224 mM; Average blood glucose (Sprague-Dawley rats; dose 300 nmol/kg, time 0.125 days): 3.238 mM; Average blood glucose (Sprague-Dawley rats; dose 300 nmol/kg, time 0.208333 days): 2.842 mM; Average blood glucose (Sprague-Dawley rats; dose 300 nmol/kg, time 0.291667 days): 3.212 mM; Average blood glucose (Sprague-Dawley rats; dose 300 nmol/kg, time 0.3336 days): 3.494 mM; Average blood glucose (Sprague-Dawley rats; dose 300 nmol/kg, time 1 day): 2.58 mM; Average blood glucose (Sprague-Dawley rats; dose 300 nmol/kg, time 2 days): 2.118 mM; Average blood glucose (Sprague-Dawley rats; dose 300 nmol/kg, time 3 days): 2.074 mM; Average blood glucose (Sprague-Dawley rats; dose 300 nmol/kg, time 4 days): 2.37 mM; Average blood glucose (Sprague-Dawley rats; dose 300 nmol/kg, time 5 days): 2.478 mM; Average blood glucose (Sprague-Dawley rats; dose 300 nmol/kg, time 6 days): 4.534 mM; Average blood glucose (Sprague-Dawley rats; dose 300 nmol/kg, time 7 days): 5.588 mM; Average blood glucose (Sprague-Dawley rats; dose 300 nmol/kg, time 8 days): 6.552 mM; Average blood glucose (Sprague-Dawley rats; dose 300 nmol/kg, time 9 days): 5.644 mM; Average blood glucose (Sprague-Dawley rats; dose 300 nmol/kg, time 10 days): 5.788 mM"
"A14E, A21G, A22(GQEP)19, A98K^, A99P, B3Q, B25H, B29R, desB30 human insulin/(227A, 234A, 235K hIgG4-Fc(228-447))4-[bis[2-[(2-acetyl)amino]ethyl]amino]-4-oxo-butanoyl Conjugate [Example 5.6]",5.07%,–,6.46 mM,6.024 mM,5.092 mM,3.90 mM,2.808 mM,2.464 mM,2.996 mM,2.996 mM,5.98 mM,5.82 mM,6.012 mM,–
"(A14A, A21G, A22(GQAP)18, A94G, A95Q, A96A, A97K^, A98P, B29R, desB30 human insulin)/(227A, 234A, 235K, 297E, 315Q, 384Q, des447 hIgG4-Fc(228-447))4-[bis[2-[(2-acetyl)amino]ethyl]amino]-4-oxo-butanoyl Conjugate [Example 5.25]",4.49%,2.08%,5.724 mM,6.104 mM,4.9 mM,4.032 mM,3.28 mM,3.864 mM,6.224 mM,5.976 mM,6.496 mM,6.14 mM,6.452 mM,"Average blood glucose (Sprague-Dawley rats; dose 30 nmol/kg, time 5 days): 6.036 mM; Average blood glucose (Sprague-Dawley rats; dose 30 nmol/kg, time 9 days): 6.528 mM; Average blood glucose (Sprague-Dawley rats; dose 30 nmol/kg, time 10 days): 6.144 mM"
"A14E, A21G, A22(GQEP)19, A98K^, A99P, B3Q, B25H, B29R, desB30 human insulin/(227A, 234A, 235K, 297E, 315Q, 384Q, des447 hIgG4-Fc(228-447))4-[bis[2-[(2-acetyl)amino]ethyl]amino]-4-oxo-butanoyl Conjugate [Example 5.2]",6.10%,3.57%,6.608 mM,6.196 mM,5.328 mM,4.48 mM,2.7 mM,2.66 mM,3.08 mM,5.156 mM,6.232 mM,6.092 mM,5.972 mM,–
"A14E, A21G, A22(GQEP)3, A34G, A350, A36E, A37K^, A38P, B25H, B29R, desB30 human insulin/(227A, 234A, 235K hIgG4-Fc(228-447))4-[bis[2-[(2-acetyl)amino]ethyl]amino]-4-oxo-butanoyl Conjugate [Example 5.10]",2.47%,–,–,–,–,–,–,–,–,–,–,–,–,–
insulin degludec [reference compound],–,–,–,–,–,–,–,–,–,–,–,–,–,"time over which blood glucose was lowered (Sprague-Dawley rats; 3-fold higher dose (90 nmol/kg)): less than half a day; Average blood glucose (Sprague-Dawley rats; dose 90 nmol/kg, time 0 days): 5.382 mM; Average blood glucose (Sprague-Dawley rats; dose 90 nmol/kg, time 0.020833 days): 4.104 mM; Average blood glucose (Sprague-Dawley rats; dose 90 nmol/kg, time 0.041667 days): 3.182 mM; Average blood glucose (Sprague-Dawley rats; dose 90 nmol/kg, time 0.083333 days): 2.718 mM; Average blood glucose (Sprague-Dawley rats; dose 90 nmol/kg, time 0.166667 days): 2.336 mM; Average blood glucose (Sprague-Dawley rats; dose 90 nmol/kg, time 0.25 days): 3.424 mM; Average blood glucose (Sprague-Dawley rats; dose 90 nmol/kg, time 0.3336 days): 4.292 mM; Average blood glucose (Sprague-Dawley rats; dose 90 nmol/kg, time 0.5 days): 5.302 mM; Average blood glucose (Sprague-Dawley rats; dose 90 nmol/kg, time 1 day): 5.758 mM"

# The next lines start with results.
Insulin receptor affinity [IC50 relative to HI (%)] Mean Value (insulin receptor A),Substance,Lipogenesis in rat adipocytes [Potency (%)] Mean Value (isolated rat adipocytes),"Average blood glucose (Sprague-Dawley rats; dose 30 nmol/kg, time 0 days)",Average blood glucose (Sprague-Dawley rats; [1]),Average blood glucose (Sprague-Dawley rats; [2]),Average blood glucose (Sprague-Dawley rats; [3]),"Average blood glucose (Sprague-Dawley rats; dose 30 nmol/kg, time 1 day)","Average blood glucose (Sprague-Dawley rats; dose 30 nmol/kg, time 2 days)","Average blood glucose (Sprague-Dawley rats; dose 30 nmol/kg, time 3 days)","Average blood glucose (Sprague-Dawley rats; dose 30 nmol/kg, time 4 days)","Average blood glucose (Sprague-Dawley rats; dose 30 nmol/kg, time 6 days)","Average blood glucose (Sprague-Dawley rats; dose 30 nmol/kg, time 7 days)","Average blood glucose (Sprague-Dawley rats; dose 30 nmol/kg, time 8 days)",also measured
3.85%,"(A14E, A21G, A22(GQEP)19, 98K^, A99P, B25H, B29R, desB30 human insulin)/(226A, 227G, 228P, 234A, 235K, des447 hIgG4-Fc(228-447))3,5-bis[(2-acetyl)amino]benzoyl Conjugate [Example 5.33]",5.44%,5.496 mM,5.284 mM,4.716 mM,3.744 mM,3.744 mM,2.232 mM,1.844 mM,2.432 mM,6.132 mM,5.712 mM,5.38 mM,"Average blood glucose (Sprague-Dawley rats; dose 30 nmol/kg, time 5 days): 3.98 mM; Average blood glucose (Sprague-Dawley rats; dose 30 nmol/kg, time 9 days): 5.316 mM; Average blood glucose (Sprague-Dawley rats; dose 30 nmol/kg, time 10 days): 5.44 mM"
0.47%,"(A14E, A21G, A22(GQAP)18, A94G, A95Q, A96A, A97K^, A98P, B16E, B25H, B29R, desB30 human insulin)/(227A, 234A, 235K, 297E, 315Q, 384Q, des447 hIgG4-Fc(228-447))4-[bis[2-[(2-acetyl)amino]ethyl]amino]-4-oxo-butanoyl Conjugate [Example 5.31]",0.60%,–,–,–,–,–,–,–,–,–,–,–,–
5.49%,"A14E, A21G, A22(GQAPGQAPGQAPGQEP)6-GQAP, A122K^, A123P, B25H, B29R, desB30 human insulin/(227A, 234A, 235K, 297E, 315Q, 384Q, des447 hIgG4-Fc(228-447))4-[bis[2-[(2-acetyl)amino]ethyl]amino]-4-oxo-butanoyl Conjugate [Example 5.20]",5.41%,–,–,–,–,–,–,–,–,–,–,–,–
3.56%,"(A14E, A21G, A22(GQAP)24, A118G, A119Q, A120A, A121K^, A122P, B25H, B29R, desB30 human insulin)/(227A, 234A, 235K, 297E, 315Q, 3840, des447 hIgG4-Fc(228-447))3,5-bis[(2-acetyl)amino]benzoyl Conjugate [Example 5.22]",4.64%,–,–,–,–,–,–,–,–,–,–,–,–
3.06%,"(A14E, A21G, A22(GQAP)24, A118G, A119Q, A120A, A121K^, A122P, B29R, desB30 human insulin)/(227A, 234A, 235K, 297E, 315Q, 384Q, des447 hIgG4-Fc(228-447))3,5-bis[(2-acetyl)amino]benzoyl Conjugate [Example 5.29]",2.64%,–,–,–,–,–,–,–,–,–,–,–,–
2.16%,"A14E, A21G, A22(GQEP)6, A46K^, A47P, B25H, B29R, desB30 human insulin/(227A, 234A, 235K, 297E, 315Q, 384Q, des447 hIgG4-Fc(228-447))4-[bis[2-[(2-acetyl)amino]ethyl]amino]-4-oxo-butanoyl Conjugate [Example 5.32]",3.72%,–,–,–,–,–,–,–,–,–,–,–,–
